In ChEMBL document CHEMBL5726782, “N-pyrrolidinyl,N′-pyrazolyl-urea, thiourea, guanidine and cyanoguanidine compounds as TrkA kinase inhibitors” (2018) one finds IC50 data, which are given here for 1 compound.

The target of the assay is High affinity nerve growth factor receptor (Homo sapiens, UniProt P04629). Kind of assay: Kinase Binding Assay: TrkA binding activity was determined in a TrkA LanthaScreen™ Eu Kinase Binding Assay. 5 nM His-tagged recombinant human TrkA (6HIS tagged cytoplasmic domain from Invitrogen, Catalog No. PV3144) was incubated with 4 nM Alexa-Fluor® Tracer 236 (Invitrogen Cat. No. PV5592), 2 nM biotinylated anti-His (Invitrogen Cat. No. PV6090), and 2 nM europium-labeled Streptavidin (Invitrogen Cat. No. PV5899), in buffer (25 mM MOPS, pH 7.5, 5 mM MgCl2, 0.005% Triton X-100). Three fold serial dilutions of compounds of the invention in DMSO were added to a final percentage of 2% DMSO. After 60-minute incubation at 22° C., the reaction was measured using the EnVision mutlimode plate reader (PerkinElmer) via TR-FRET dual wavelength detection at […]. The percent of control was calculated using a ratiometric emission factor.

Bounds are passed on as bounds.

Chain of High affinity nerve growth factor receptor (P04629 whole entry, the tested form may be a part): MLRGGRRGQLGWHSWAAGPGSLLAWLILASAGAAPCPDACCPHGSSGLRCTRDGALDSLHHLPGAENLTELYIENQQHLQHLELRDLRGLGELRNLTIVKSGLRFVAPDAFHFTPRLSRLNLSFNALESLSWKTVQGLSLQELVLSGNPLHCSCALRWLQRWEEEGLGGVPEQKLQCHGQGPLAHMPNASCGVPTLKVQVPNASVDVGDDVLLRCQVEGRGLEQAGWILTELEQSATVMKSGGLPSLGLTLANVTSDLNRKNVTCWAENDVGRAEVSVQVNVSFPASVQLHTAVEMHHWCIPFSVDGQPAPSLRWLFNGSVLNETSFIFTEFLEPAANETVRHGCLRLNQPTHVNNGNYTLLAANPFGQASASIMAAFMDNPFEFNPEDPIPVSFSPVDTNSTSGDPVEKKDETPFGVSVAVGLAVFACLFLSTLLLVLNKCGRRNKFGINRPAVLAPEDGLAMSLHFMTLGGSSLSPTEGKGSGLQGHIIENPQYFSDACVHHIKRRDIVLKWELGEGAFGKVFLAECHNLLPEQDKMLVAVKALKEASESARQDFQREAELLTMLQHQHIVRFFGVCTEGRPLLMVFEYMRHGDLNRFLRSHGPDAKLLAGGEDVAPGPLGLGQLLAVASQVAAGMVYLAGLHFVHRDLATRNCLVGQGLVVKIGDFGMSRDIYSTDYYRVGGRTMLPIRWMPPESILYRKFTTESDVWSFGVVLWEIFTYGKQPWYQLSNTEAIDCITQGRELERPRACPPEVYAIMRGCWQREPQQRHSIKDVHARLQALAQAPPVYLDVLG

For `COCCN1C[C@@H](NC(=O)Nc2c(C)c(-c3cncc(OC)c3)nn2-c2ccccc2)[C@H](c2ccc(F)c(F)c2)C1`, the IC50 was less than 100 nM.

The IC50 is the concentration that gives 50% inhibition.
